The test system of this assay is antigen-specific total IgG, IgG1 and IgG2c (H56 antigen). Also noted: species or system CB6F1 mice. Conditions: mouse, in vivo.

In the case of CpG ODN 2006 [CpG2006], the “increased antibody responses (effect seen with DDA/MMG/CpG2006)” value was “not observed”.

The values are drawn from patent US20250170236A1, “A NOVEL CATIONIC ADJUVANT COMPOSITION” (STATENS SERUM INSTITUT, priority 2022, published 2025).
